From patent US7786141B2 (Vertex Pharmaceuticals Incorporated, priority 2004, dated 2010)

Assays:
M1 muscarinic receptor = biological target: T1, M1 muscarinic receptor (Homo sapiens, UniProt P11229); assay: Functional mobilization of intracellular calcium (FLIPR) in M1-CHO cells; assay type: cell-based; conditions: Table 4; for M1 Activity: M1 receptor, calcium mobilization (FLIPR)
T1 construct: expressed in transfected cells; host or cells: CHO (M1-CHO)
T1 sequence (P11229 1-460): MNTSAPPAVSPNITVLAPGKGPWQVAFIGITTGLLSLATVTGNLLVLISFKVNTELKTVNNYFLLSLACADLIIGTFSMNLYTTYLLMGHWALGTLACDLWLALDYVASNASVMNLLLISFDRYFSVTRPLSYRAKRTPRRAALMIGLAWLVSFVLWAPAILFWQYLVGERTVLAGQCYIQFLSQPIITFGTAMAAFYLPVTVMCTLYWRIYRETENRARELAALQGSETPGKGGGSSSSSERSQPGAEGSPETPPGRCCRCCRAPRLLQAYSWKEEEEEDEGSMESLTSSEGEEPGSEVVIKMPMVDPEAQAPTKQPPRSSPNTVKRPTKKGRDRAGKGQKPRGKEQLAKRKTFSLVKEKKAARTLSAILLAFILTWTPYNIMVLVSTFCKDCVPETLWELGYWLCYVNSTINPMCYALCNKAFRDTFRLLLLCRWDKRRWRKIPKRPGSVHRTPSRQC
Procedure, shortened: (§1)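 Steps: seed M1- or M4-CHO cells 18-24 hrs ahead; load calcium dye with 1 mM probenecid; add test compound (0.5% DMSO final), either alone for agonism or 15 min before EC80 carbachol for inhibition; record FLIPR fluorescence for 60 sec.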

M4 muscarinic receptor = biological target: T2, M4 muscarinic receptor (Homo sapiens, UniProt P08173); assay: Functional mobilization of intracellular calcium (FLIPR) in M4-CHO cells; assay type: cell-based; conditions: Table 4; for M4 Activity: M4 receptor, calcium mobilization (FLIPR)
T2 construct: expressed in transfected cells; host or cells: CHO (M4-CHO)
T2 sequence (P08173 1-479): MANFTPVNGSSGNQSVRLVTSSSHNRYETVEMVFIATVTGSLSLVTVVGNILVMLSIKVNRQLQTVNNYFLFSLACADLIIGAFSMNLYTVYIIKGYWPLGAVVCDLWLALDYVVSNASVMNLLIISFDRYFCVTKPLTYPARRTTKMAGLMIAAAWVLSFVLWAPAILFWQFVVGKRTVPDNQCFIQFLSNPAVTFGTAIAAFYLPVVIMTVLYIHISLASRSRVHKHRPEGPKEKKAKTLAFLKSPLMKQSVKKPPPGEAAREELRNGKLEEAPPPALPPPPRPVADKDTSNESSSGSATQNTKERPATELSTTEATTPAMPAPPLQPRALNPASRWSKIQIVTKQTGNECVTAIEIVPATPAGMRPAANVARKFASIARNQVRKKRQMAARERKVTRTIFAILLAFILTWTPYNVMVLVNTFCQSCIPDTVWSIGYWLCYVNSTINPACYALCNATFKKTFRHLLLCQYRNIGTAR
Procedure, shortened: as §1

[1] = 100% efficacy is the maximum response obtained with the Carbachol control

| SMILES | M1 Efficacy (M1 muscarinic receptor; [1]) | M1 Activity (M1 muscarinic receptor) | M4 Efficacy (M4 muscarinic receptor; [1]) | M4 Activity (M4 muscarinic receptor) | Emax (M1 muscarinic receptor; [1]) | Emax (M4 muscarinic receptor; [1]) |
| --- | --- | --- | --- | --- | --- | --- |
| CC(=O)N[C@H]1CCC2(CCN(CCC3CCN(C(C)=O)CC3)CC2)c2ccccc21 [compound 832] | xx (efficacy was calculated to be between 100% and 25%) | xxx (activity was measured to be less than 2.0 μM) | xx (efficacy was calculated to be between 100% and 25%) | xxx (activity was measured to be less than 2.0 μM) | – | – |
| CC(=O)NC1CCC2(CCN(CCC3CCN(C(C)=O)CC3)CC2)c2ccccc21 (stereo not shown) [compound 833] | – | xxx (activity was measured to be less than 2.0 μM) | – | xxx (activity was measured to be less than 2.0 μM) | 25 to 100% | 25 to 100% |
| CC(=O)N[C@H]1CC2(CCN(C34CCCCC3C4)CC2)c2ccccc21 (stereo partly shown) [compound 834] | – | xxx (activity was measured to be less than 2.0 μM) | – | xxx (activity was measured to be less than 2.0 μM) | 25 to 100% | 25 to 100% |
| CCOC(=O)N1C2CCC1CC(N1CCC3(CC1)CC(=O)c1ccc(Cl)cc13)C2 (stereo not shown) [compound 836] | – | xxx (activity was measured to be less than 2.0 μM) | – | xxx (activity was measured to be less than 2.0 μM) | 25 to 100% | 25 to 100% |
| COc1cccc(-c2cncc(N3CCC(N4CCC5(CC4)CN(C(C)=O)c4ccccc45)CC3)n2)c1 [compound 837] | – | x (activity was measured to be greater than 5.0 μM) | – | x (activity was measured to be greater than 5.0 μM) | < 25% | < 25% |
| CCOC(=O)N1CCC(N2CCC3(CC2)CN(c2cccc(OC)c2)c2ccc(F)cc23)CC1 [compound 838] | – | xxx (activity was measured to be less than 2.0 μM) | – | xxx (activity was measured to be less than 2.0 μM) | 25 to 100% | 25 to 100% |
| Cc1ccc2c(c1)C1(CCN(C3CC4CCC3C4)CC1)CN2C(=O)c1ccncc1 (stereo not shown) [compound 840] | – | x (activity was measured to be greater than 5.0 μM) | – | x (activity was measured to be greater than 5.0 μM) | < 25% | < 25% |
| O=C(N[C@H]1CC2(CCN(C3CCCCC3)CC2)c2ccccc21)N1CCCC1 [compound 842] | – | x (activity was measured to be greater than 5.0 μM) | – | xxx (activity was measured to be less than 2.0 μM) | < 25% | < 25% |
| CCOC(=O)N1CC[C@@H](CN2CCC3(CC2)CN(C(C)=O)c2ccccc23)C1 [compound 843] | – | xxx (activity was measured to be less than 2.0 μM) | – | xxx (activity was measured to be less than 2.0 μM) | 25 to 100% | 25 to 100% |
| CC#CCN1CC2(CCN(C3CCN(C(=O)OCC)CC3)CC2)c2cc(F)ccc21 [compound 844] | – | xxx (activity was measured to be less than 2.0 μM) | – | xxx (activity was measured to be less than 2.0 μM) | 25 to 100% | 25 to 100% |
| CC(=O)N1CC2(CCN(CC3=CCC4C[C@@H]3C4(C)C)CC2)c2cc(F)ccc21 [compound 845] | – | x (activity was measured to be greater than 5.0 μM) | – | x (activity was measured to be greater than 5.0 μM) | < 25% | < 25% |
| O=C1CC2(CCN(CC3CCCCC3)C2)c2ccc(F)cc21 (stereo not shown) [compound 846] | – | xx (activity was measured to be between 2.0 μM and 5.0 μM) | – | xx (activity was measured to be between 2.0 μM and 5.0 μM) | < 25% | < 25% |
| CN(C)C(=O)N1CC2(CCN(C[C@H]3CCN(C(=O)OCC(F)F)C3)CC2)c2cc(F)ccc21 [compound 848] | – | xxx (activity was measured to be less than 2.0 μM) | – | xxx (activity was measured to be less than 2.0 μM) | 25 to 100% | > 100% |
| CCOC1CCCCC1N1CCC2(CC1)CN(C(C)=O)c1ccc(F)cc12 (stereo not shown) [compound 849] | – | x (activity was measured to be greater than 5.0 μM) | – | x (activity was measured to be greater than 5.0 μM) | < 25% | < 25% |
| CCOC(=O)N1CCC(N2CCC3(CC2)CN(C(=O)CCC(C)=O)c2ccc(F)cc23)CC1 [compound 851] | – | xxx (activity was measured to be less than 2.0 μM) | – | xxx (activity was measured to be less than 2.0 μM) | 25 to 100% | 25 to 100% |
| CN(C)C(=O)N1CC2(CCN(C[C@H]3CCN(c4nccs4)C3)CC2)c2cc(F)ccc21 [compound 852] | – | xx (activity was measured to be between 2.0 μM and 5.0 μM) | – | xxx (activity was measured to be less than 2.0 μM) | 25 to 100% | 25 to 100% |
| CC#CCOC(=O)N1CCC(N2CCC3(CC2)CN(CCOC)c2ccc(F)cc23)CC1 [compound 853] | – | xxx (activity was measured to be less than 2.0 μM) | – | xxx (activity was measured to be less than 2.0 μM) | 25 to 100% | 25 to 100% |
| O=C1CCCN1[C@H]1CCC2(CCN([C@H]3CC4CC[C@H](C4)C3)CC2)c2ccccc21 [compound 854] | – | xxx (activity was measured to be less than 2.0 μM) | – | xxx (activity was measured to be less than 2.0 μM) | 25 to 100% | 25 to 100% |
| CCOC(=O)N1CCC(N2CCC3(CC2)CN(c2cncnc2)c2ccc(F)cc23)CC1 [compound 855] | – | xxx (activity was measured to be less than 2.0 μM) | – | xxx (activity was measured to be less than 2.0 μM) | 25 to 100% | 25 to 100% |
| O=C1CCCN1[C@H]1CCC2(CCN(C[C@@H]3C[C@H]4C=CC3C4)CC2)c2ccccc21 [compound 856] | – | xxx (activity was measured to be less than 2.0 μM) | – | xxx (activity was measured to be less than 2.0 μM) | 25 to 100% | 25 to 100% |
| CCOC(=O)N1CCC(N2CCC3(CC2)CN(C(C)=O)c2c(-c4ccccc4)cccc23)CC1 [compound 857] | – | x (activity was measured to be greater than 5.0 μM) | – | x (activity was measured to be greater than 5.0 μM) | 25 to 100% | < 25% |
| CCOC(=O)N1CCC(N2CCC3(CC2)CN(C(C)=O)c2c(CC)cccc23)CC1 [compound 859] | – | x (activity was measured to be greater than 5.0 μM) | – | x (activity was measured to be greater than 5.0 μM) | 25 to 100% | 25 to 100% |
| CC(=O)N1CC2(CCN(C[C@H]3CCN(c4cnccn4)C3)CC2)c2c(C)cccc21 [compound 860] | – | xxx (activity was measured to be less than 2.0 μM) | – | xxx (activity was measured to be less than 2.0 μM) | 25 to 100% | 25 to 100% |
| CC(=O)N[C@H]1CCC2(CCN([C@H]3CC4CC[C@H](C4)C3)CC2)c2ccccc21 [compound 861] | – | xxx (activity was measured to be less than 2.0 μM) | – | xxx (activity was measured to be less than 2.0 μM) | 25 to 100% | 25 to 100% |
| CCOC(=O)N1CCC(N2CCC3(CC2)CN(C(C)=O)c2ccc(C#N)cc23)CC1 [compound 862] | – | xxx (activity was measured to be less than 2.0 μM) | – | xxx (activity was measured to be less than 2.0 μM) | 25 to 100% | 25 to 100% |
| Cc1ccc2c(c1)C(=O)CC21CCN(C2CCCCCC2)CC1 [compound 863] | – | x (activity was measured to be greater than 5.0 μM) | – | xx (activity was measured to be between 2.0 μM and 5.0 μM) | 25 to 100% | 25 to 100% |
| CC(=O)N1CC2(CCN(C[C@H]3CCN(C(=O)OC(C)C)C3)CC2)c2ccccc21 [compound 864] | – | x (activity was measured to be greater than 5.0 μM) | – | x (activity was measured to be greater than 5.0 μM) | < 25% | < 25% |
| CCO/N=C1\CC2(CCN([C@@H]3C[C@@H]4CC[C@@H]3C4)CC2)c2cc(Cl)ccc21 [compound 865] | – | xx (activity was measured to be between 2.0 μM and 5.0 μM) | – | xxx (activity was measured to be less than 2.0 μM) | 25 to 100% | 25 to 100% |
